Values of other authors as cited in patent US12600787B2, “Methods for the treatment of thyroid eye disease” (Horizon Therapeutics Ireland DAC, priority 2019, dated 2026).
Where two headings read alike, the source gives them in different places.

Columns and labels:
IGF-1 R = IGF-1 R (Homo sapiens, UniProt P08069); conditions: cited from earlier work
ALK = ALK (Homo sapiens, UniProt Q9UM73); conditions: cited from earlier work
neuroblastoma = conditions: by overcoming crizotinib resistance and inducing apoptosis; cited from earlier work
[1] = cited from earlier work
tumors = conditions: in vivo; cited from earlier work
IGF-IR (purified enzyme) = IGF-IR (purified enzyme) (Homo sapiens, UniProt P08069); conditions: cited from earlier work
Sequence of IGF-IR (purified enzyme) (P08069 31-1367): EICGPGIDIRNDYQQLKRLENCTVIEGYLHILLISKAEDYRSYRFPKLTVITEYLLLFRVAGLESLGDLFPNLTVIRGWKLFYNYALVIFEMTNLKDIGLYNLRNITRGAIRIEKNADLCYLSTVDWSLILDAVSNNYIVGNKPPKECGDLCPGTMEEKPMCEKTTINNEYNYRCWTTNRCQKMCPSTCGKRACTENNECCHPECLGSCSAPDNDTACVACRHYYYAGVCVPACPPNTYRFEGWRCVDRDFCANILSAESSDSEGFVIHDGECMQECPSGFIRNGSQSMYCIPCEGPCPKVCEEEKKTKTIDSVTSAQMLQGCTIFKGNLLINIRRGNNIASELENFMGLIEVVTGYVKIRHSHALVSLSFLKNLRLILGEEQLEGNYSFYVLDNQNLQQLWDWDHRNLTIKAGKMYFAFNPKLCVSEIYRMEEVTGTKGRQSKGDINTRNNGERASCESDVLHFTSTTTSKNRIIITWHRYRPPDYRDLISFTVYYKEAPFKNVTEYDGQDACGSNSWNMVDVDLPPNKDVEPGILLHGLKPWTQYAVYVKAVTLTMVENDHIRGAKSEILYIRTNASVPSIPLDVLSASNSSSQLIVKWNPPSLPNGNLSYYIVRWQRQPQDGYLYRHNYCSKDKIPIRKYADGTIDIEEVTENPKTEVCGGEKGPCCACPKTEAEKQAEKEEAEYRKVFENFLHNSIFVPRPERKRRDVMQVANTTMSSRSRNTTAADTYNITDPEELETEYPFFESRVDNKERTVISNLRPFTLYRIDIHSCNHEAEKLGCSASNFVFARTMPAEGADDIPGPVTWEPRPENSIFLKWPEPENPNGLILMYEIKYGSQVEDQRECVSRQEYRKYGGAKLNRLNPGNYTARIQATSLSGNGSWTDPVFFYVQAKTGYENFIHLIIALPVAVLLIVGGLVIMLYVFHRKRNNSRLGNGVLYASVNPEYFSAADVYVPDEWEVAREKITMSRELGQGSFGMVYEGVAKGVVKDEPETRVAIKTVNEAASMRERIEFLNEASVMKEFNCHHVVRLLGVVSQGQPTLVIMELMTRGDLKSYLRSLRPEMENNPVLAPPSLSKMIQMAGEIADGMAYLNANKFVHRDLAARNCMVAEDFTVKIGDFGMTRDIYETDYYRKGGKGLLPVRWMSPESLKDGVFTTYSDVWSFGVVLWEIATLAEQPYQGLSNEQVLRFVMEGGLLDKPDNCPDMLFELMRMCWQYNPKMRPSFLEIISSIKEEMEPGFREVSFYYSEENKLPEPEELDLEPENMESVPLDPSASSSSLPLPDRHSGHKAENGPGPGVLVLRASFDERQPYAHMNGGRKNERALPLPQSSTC

[2] = test system: intracellular IGF-IR phosphorylation; conditions: cited from earlier work
[3] = molecular target: c-erbB2/HER2/neu receptor (Homo sapiens, UniProt P04626); conditions: cited from earlier work
Sequence of c-erbB2/HER2/neu receptor (P04626 23-1255): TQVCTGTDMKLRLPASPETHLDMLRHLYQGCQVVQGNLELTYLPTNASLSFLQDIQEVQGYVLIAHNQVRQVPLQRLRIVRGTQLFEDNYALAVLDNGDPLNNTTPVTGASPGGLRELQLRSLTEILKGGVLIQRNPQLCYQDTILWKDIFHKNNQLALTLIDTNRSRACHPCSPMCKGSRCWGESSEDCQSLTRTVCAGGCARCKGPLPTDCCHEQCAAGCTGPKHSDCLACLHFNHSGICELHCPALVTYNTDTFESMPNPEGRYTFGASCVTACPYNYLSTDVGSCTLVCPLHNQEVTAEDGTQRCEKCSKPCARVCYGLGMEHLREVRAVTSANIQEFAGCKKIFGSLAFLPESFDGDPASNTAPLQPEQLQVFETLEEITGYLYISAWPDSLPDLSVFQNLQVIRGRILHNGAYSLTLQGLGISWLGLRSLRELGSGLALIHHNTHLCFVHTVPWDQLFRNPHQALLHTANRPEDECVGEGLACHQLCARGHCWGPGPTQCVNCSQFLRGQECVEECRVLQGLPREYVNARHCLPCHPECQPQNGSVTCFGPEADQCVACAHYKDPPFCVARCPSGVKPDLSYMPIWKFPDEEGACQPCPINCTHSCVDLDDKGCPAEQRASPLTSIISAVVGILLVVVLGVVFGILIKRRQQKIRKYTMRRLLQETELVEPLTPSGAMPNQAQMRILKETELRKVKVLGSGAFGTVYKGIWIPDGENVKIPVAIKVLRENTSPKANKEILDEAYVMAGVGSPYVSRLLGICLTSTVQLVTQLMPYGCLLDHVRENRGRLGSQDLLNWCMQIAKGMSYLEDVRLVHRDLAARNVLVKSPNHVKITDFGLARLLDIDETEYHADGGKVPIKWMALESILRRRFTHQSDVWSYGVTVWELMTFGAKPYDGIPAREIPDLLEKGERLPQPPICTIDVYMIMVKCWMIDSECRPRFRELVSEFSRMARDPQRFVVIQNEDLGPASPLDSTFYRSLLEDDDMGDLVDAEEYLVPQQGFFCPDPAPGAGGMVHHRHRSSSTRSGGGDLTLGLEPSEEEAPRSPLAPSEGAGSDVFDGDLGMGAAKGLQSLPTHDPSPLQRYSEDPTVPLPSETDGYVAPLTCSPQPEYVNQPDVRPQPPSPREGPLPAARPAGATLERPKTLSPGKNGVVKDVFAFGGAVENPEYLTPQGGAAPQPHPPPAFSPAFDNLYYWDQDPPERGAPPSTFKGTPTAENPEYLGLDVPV

[4] = test system: susceptible tumor cell populations; conditions: cited from earlier work
[5] = cited from earlier work; remark: listed apart in the source
[6] = test system: IGF-1 R-overexpressing tumor cells; conditions: cited from earlier work
[7] = test system: moderate-to-severe active TED; conditions: cited from earlier work
TED (GO) = conditions: cited from earlier work

Sequence of IGF-1 R (P08069 31-1367): as the sequence (P08069 31-1367) above
Sequence of ALK (Q9UM73 19-1620, species assumed): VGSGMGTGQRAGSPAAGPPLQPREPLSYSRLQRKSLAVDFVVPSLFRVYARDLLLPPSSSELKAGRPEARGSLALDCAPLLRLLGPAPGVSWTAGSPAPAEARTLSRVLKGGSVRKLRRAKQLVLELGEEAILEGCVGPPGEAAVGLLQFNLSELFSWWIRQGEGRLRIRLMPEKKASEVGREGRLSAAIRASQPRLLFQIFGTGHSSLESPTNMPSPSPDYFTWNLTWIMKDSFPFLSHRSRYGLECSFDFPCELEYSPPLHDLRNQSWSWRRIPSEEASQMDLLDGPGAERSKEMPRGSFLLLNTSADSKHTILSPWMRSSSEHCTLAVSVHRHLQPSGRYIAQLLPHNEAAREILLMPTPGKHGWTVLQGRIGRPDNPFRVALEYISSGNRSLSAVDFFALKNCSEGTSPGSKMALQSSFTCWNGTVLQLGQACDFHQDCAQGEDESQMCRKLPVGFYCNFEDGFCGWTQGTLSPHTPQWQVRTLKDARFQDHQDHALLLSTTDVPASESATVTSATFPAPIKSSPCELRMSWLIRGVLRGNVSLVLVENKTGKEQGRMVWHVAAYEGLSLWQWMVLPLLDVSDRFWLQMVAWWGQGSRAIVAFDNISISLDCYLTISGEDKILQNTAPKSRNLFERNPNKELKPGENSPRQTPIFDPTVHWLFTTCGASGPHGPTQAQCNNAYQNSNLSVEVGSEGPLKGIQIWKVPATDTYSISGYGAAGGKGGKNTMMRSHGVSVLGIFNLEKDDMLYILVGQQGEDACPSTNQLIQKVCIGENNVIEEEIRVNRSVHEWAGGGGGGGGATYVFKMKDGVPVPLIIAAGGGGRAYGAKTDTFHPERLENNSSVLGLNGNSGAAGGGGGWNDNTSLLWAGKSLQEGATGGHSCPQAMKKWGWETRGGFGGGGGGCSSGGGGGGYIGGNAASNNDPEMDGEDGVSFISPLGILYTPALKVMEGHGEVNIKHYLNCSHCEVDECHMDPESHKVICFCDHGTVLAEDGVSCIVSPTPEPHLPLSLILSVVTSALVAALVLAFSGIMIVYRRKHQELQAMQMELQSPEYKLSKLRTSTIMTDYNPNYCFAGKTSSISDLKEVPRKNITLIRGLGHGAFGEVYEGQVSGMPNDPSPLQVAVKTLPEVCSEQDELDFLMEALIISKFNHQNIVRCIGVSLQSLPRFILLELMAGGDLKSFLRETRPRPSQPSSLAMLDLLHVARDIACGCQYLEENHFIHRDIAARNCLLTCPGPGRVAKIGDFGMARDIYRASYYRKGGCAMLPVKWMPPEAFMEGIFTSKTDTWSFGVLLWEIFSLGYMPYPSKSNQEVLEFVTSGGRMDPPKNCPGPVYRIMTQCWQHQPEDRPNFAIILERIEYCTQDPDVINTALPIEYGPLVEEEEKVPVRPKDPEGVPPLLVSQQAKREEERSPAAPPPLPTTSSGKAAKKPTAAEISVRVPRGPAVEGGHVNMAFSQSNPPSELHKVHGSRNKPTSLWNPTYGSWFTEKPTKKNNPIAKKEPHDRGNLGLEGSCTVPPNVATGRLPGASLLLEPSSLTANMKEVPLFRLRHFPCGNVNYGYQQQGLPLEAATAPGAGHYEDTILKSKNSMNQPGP

In the case of `COc1cc(N2CCC(N)CC2)ccc1Nc1ncc(Cl)c(-c2c[nH]c3ccccc23)n1` [AZD3463], the IGF-1R inhibition (IGF-1 R) is given as “potent ALK/IGF-1 R inhibitor”, the ALK inhibition (ALK) is given as “potent ALK/IGF-1 R inhibitor” and the neuroblastoma growth (neuroblastoma) is given as “inhibition of neuroblastoma growth”.

For `COCCN1CCN(CCn2ccc(Nc3ncc4c(n3)[C@@H](C)Cc3nn(C)c(-c5ccccc5)c3-4)n2)CC1` [BI885578], the in vivo half-life [1] is listed as “short in vivo half-life”, the intestinal absorption ([1]; in vivo) is listed as “rapid intestinal absorption” and the metabolic clearance ([1]; in vivo) is listed as “rapid metabolic clearance”. For the same molecule, the “cell proliferation and apoptosis in tumors” value (tumors) was “inhibition of cell proliferation and induction of apoptosis in tumors”.

In the case of `Nc1ncnc2c1c(-c1ccc3[nH]c(Cc4ccccc4Cl)nc3c1)nn2[C@H]1CC[C@H](N2CCOCC2)CC1` [Example A-928605], the “inhibition of IGF-IR” value (IGF-IR (purified enzyme)) is given as “potent inhibitor” and the “inhibition of IGF-IR phosphorylation” value [2] is given as “potent inhibitor”.

In the case of `C[C@H](Cc1ccc(O)c(O)c1)[C@@H](C)Cc1ccc(O)c(O)c1` [INSM-18, nordihydroguaiaretic acid], the IGF-1R inhibition (IGF-1 R) is given as “directly inhibits activation”, the “inhibition of activation of c-erbB2/HER2/neu receptor” value [3] is given as “directly inhibits activation” and the “proliferation of tumor cells” value [4] is given as “decreased proliferation”.

For `C[C@]1(O)C[C@@H](c2nc(-c3ccc4ccc(-c5ccccc5)nc4c3)c3c(N)nccn32)C1` [Linsitinib], the T1/2 ([5]; oral) is listed as “oral; 2-4 hrs”.

For `CCOC(=O)N1CCC(Nc2cc(Cl)cc3c(S(=O)(=O)N4CCO[C@H](COc5ccccc5)C4)c(C(N)=O)[nH]c23)CC1` [PL-225B], the T1/2 ([5]; oral) is given as “Oral; 21d”, the IGF-1R inhibition (IGF-1 R) is given as “selectively inhibits” and the tumor cell apoptosis [6] is given as “induction of tumor cell apoptosis”. For the same molecule, the tumor cell proliferation [6] was “inhibition of tumor cell proliferation”.

In the case of “Cixutumumab: IGF-1R inhibitor antibody, HC SEQ ID NO:55, LC SEQ ID NO:56”, the T1/2 ([5]; IV) is given as “IV; 5 days”.

In the case of “Dalotuzumab: IGF-1R inhibitor antibody, HC SEQ ID NO:7, LC SEQ ID NO:8”, the T1/2 ([5]; in vivo) is given as “IV; 5 days”.

For “rituximab: a CD20+ B cell-depleting agent”, the “trial result versus placebo” value ([7]; first monocenter RCT, 2015) is listed as “negative (no differences with placebo)”, the “reduction in proptosis compared with ivGCs” value ([7]; results using rituximab versus ivGC RCT) is listed as “not different” and the “trial result versus ivGCs” value ([7]; second monocenter RCT, 2015) is listed as “positive (beneficial effects comparable to ivGCs)”.

In the case of “teprotumumab: fully human IGF-IR-inhibitory monoclonal antibody approved for the treatment of TED”, the T1/2 ([5]; IV) is listed as “IV; 8 days”, the “efficacy in the treatment of TED” value (TED (GO); in vivo) is listed as “effective” and the “average decrease in exophthalmos” value (TED (GO); vs. 0.15 mm in the placebo group) is listed as 2.46 mm.

B1: Figitumumab: IGF-1R inhibitor antibody, HC SEQ ID NO:39, LC SEQ ID NO:40 (antibody)
heavy: EVQLLESGGGLVQPGGSLRLSCTASGFTFSSYAMNWVRQAPGKGLEWVSAISGSGGTTFYADSVKGRFTISRDNSRTTLYLQMNSLRAEDTAVYYCAKDLGWSDSYYYYYGMDVWGQGTTVTVSSASTKGPSVFPLAPCSRSTSESTAALGCLVKDYFPEPVTVSWNSGALTSGVHTFPAVLQSSGLYSLSSVVTVPSSNFGTQTYTCNVDHKPSNTKVDKTVERKCCVECPPCPAPPVAGPSVFLFPPKPKDTLMISRTPEVTCVVVDVSHEDPEVQFNWYVDGVEVHNAKTKPREEQFNSTFRVVSVLTVVHQDWLNGKEYKCKVSNKGLPAPIEKTISKTKGQPREPQVYTLPPSREEMTKNQVSLTCLVKGFYPSDIAVEWESNGQPENNYKTTPPMLDSDGSFFLYSKLTVDKSRWQQGNVFSCSVMHEALHNHYTQKSLSLSPGK
light: DIQMTQFPSSLSASVGDRVTITCRASQGIRNDLGWYQQKPGKAPKRLIYAASRLHRGVPSRFSGSGSGTEFTLTISSLQPEDFATYYCLQHNSYPCSFGQGTKLEIKRTVAAPSVFIFPPSDEQLKSGTASVVCLLNNFYPREAKVQWKVDNALQSGNSQESVTEQDSKDSTYSLSSTLTLSKADYEKHKVYACEVTHQGLSSPVTKSFNRGEC
modifications: Heavy Chain of Figitumumab; Light Chain of Figitumumab
In the case of B1, the T1/2 ([5]; IV) is listed as “IV; 20 days”.
